The NIST ThermoML archive (doi:10.1021/je7005924)

Conditions: Liquid

CC(C)=O [acetone]
Conditions | vapor or sublimation pressure [kPa]
297.67 K | 30.23
301.25 K | 35.22
307.33 K | 45.21
310.08 K | 50.4
312.52 K | 55.29
314.76 K | 60.29
316.8 K | 65.08
318.77 K | 70.07

CC(=O)C(C)=O [2,3-butanedione]
Conditions | vapor or sublimation pressure [kPa]
314.3 K | 19.06
320.55 K | 24.04
325.62 K | 29.03
329.85 K | 33.91
333.64 K | 39
336.76 K | 43.59
339.99 K | 48.97
342.8 K | 53.85
345.41 K | 58.83
347.62 K | 63.83
349.9 K | 68.81
351.89 K | 73.79

CCC(=O)C(C)=O [2,3-pentanedione]
Conditions | vapor or sublimation pressure [kPa]
331.84 K | 15.37
338.38 K | 20.36
343.73 K | 25.35
348.13 K | 30.35
352.15 K | 35.34
355.74 K | 40.33
358.85 K | 45.32
361.89 K | 50.21
364.69 K | 55.21
367.09 K | 60.2
369.44 K | 65.19
371.61 K | 70.18
373.8 K | 75.27
